Assay [1] concerns HCT116 colorectal cancer cells. Kind of assay: Cisplatin sensitization assay, 96 h cell viability (MTS). The class given is cell-based. The settings on record: concentration of compound required to reduce the IC50 of Cisplatin alone by at least 3-fold; HCT116, 96 h MTS. The method, then:
Compounds can be screened for their ability to sensitize HCT116 colorectal cancer cells to Cisplatin using a 96 h cell viability (MTS) assay. […] Compounds and Cisplatin are then both added simultaneously to the cell media in 2-fold serial dilutions from a top final concentration of 10 μM as a full matrix of concentrations in a final cell volume of 200 μl, and the cells are then incubated at 37° C. in 5% CO2. After 96 h, 40 μl of MTS reagent (Promega G358a) is added to each well and the cells are incubated for 1 h at 37° C. in 5% CO2.

Assay [2] relates to HCT116 colorectal cancer cells. Kind of assay: Single agent HCT116 activity, 96 h cell viability (MTS) assay. Conditions: Homo sapiens, HCT-116, 96 h MTS viability, read-out: Single agent HT116 IC50. It is filed as cell-based. How it is done:
Compounds can be screened for single agent activity against HCT116 colorectal cancer cells using a 96 h cell viability (MTS) assay. HCT116 are plated at 470 cells per well in 96-well polystyrene plates (Costar 3596) in 150 μl of McCoy's 5A media (Sigma M8403) supplemented with 10% foetal bovine serum (JRH Biosciences 12003), Penicillin/Streptomycin solution diluted 1:100 (Sigma P7539), and 2 mM L-glumtamine (Sigma G7513), and allowed to adhere overnight at 37° C. in 5% CO2. Compounds are then added to the cell media in 2-fold serial dilutions from a top final concentration of 10 μM as a full matrix of concentrations in a final cell volume of 200 μl, and the cells are then incubated at 37° C. in 5% CO2. After 96 h, 40 μl of MTS reagent (Promega G358a) is added to each well and the cells are incubated for 1 h at 37° C. in 5% CO2. Finally, absorbance is measured at 490 nm using a SpectraMax Plus 384 reader (Molecular Devices) and IC50 values can be calculated.

The next assay has as its target full-length ATR (Homo sapiens (Human), UniProt Q13535). The assay can be described thus: ATR inhibition assay (radioactive-phosphate incorporation). The class given is biochemical.

The term IC50 denotes the concentration that inhibits the measured activity by half. A word on the Ki: it is the dissociation constant of the complex between target and ligand, obtained from inhibition or displacement.

Chain of full-length ATR (Q13535 whole entry): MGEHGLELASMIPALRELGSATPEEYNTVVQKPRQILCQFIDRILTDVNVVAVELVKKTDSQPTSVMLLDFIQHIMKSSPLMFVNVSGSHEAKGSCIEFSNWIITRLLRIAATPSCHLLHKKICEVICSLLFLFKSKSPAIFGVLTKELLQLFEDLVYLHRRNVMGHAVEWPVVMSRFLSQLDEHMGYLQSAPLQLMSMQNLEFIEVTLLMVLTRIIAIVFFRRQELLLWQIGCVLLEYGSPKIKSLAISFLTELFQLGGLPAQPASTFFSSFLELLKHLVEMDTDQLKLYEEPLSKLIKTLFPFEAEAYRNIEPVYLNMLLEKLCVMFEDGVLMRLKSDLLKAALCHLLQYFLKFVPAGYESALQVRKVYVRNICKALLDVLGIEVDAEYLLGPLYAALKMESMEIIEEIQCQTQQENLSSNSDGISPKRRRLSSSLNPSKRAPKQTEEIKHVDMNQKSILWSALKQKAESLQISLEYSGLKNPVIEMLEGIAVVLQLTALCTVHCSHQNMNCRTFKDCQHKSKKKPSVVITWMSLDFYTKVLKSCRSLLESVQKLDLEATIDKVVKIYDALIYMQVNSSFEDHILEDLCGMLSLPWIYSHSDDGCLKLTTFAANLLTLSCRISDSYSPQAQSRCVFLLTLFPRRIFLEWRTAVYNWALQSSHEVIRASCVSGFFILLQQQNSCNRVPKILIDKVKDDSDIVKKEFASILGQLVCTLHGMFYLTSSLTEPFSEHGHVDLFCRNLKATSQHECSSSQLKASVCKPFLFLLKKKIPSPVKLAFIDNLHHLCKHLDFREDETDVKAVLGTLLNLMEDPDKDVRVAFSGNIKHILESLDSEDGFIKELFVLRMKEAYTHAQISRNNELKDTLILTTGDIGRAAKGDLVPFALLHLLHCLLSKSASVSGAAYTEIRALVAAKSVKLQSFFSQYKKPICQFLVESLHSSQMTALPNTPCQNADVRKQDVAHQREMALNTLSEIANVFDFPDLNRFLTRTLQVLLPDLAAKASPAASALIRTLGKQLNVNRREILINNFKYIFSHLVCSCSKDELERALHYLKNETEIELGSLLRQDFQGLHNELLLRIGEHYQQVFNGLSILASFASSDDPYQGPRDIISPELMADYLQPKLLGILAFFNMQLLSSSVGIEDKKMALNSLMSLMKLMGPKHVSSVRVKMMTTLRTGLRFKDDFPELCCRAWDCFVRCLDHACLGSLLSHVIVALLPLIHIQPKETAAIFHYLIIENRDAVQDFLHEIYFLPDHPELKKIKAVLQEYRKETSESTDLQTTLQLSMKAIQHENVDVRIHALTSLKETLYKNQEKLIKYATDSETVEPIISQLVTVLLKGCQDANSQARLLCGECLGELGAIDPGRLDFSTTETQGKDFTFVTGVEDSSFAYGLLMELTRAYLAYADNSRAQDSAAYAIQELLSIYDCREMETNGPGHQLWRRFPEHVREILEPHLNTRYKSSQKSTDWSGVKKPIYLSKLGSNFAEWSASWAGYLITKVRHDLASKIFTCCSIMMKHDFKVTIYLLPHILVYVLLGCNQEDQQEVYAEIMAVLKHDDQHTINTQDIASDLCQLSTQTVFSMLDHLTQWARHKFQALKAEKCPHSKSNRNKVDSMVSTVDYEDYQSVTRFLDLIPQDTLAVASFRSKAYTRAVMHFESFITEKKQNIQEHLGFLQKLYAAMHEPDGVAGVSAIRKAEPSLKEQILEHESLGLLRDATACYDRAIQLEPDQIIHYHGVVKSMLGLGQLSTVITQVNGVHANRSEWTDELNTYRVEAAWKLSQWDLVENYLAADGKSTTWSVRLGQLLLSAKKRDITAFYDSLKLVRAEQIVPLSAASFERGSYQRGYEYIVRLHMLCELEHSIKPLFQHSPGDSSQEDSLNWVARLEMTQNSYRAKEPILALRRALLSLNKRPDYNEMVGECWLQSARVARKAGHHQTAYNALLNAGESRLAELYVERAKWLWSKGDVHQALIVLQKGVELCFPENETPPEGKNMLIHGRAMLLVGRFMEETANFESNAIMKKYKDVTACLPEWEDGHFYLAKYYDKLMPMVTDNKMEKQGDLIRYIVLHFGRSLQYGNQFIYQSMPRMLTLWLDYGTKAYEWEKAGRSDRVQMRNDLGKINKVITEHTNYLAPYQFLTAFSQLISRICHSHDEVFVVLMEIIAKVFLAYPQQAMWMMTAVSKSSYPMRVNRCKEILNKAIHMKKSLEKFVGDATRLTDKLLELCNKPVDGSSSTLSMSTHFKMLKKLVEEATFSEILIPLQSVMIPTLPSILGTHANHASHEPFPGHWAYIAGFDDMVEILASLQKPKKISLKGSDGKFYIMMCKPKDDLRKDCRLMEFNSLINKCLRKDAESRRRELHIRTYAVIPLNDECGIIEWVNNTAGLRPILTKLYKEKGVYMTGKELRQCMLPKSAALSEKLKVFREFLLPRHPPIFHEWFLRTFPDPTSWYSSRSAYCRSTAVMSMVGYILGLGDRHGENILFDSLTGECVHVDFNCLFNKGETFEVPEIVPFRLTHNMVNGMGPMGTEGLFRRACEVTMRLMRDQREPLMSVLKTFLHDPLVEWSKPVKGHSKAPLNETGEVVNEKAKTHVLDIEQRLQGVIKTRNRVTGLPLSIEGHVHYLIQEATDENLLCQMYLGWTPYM
Protocol for full-length ATR: Compounds can be screened for their ability to inhibit ATR kinase using a radioactive-phosphate incorporation assay. Assays are carried out in a mixture of 50 mM Tris/HCl (pH 7.5), 10 mM MgCl2 and 1 mM DTT. Final substrate concentrations are 10 μM [γ-33P]ATP (3 mCi 33P ATP/mmol ATP, Perkin Elmer) and 800 μM target peptide ([sequence]).
Assays are carried out at 25° C. in the presence of 5 nM full-length ATR. An assay stock buffer solution is prepared containing all of the reagents listed above, with the exception of ATP and the test compound of interest. […] The plate is pre-incubated for 10 minutes at 25° C. and the reaction initiated by addition of 15 μL [γ-33P]ATP (final concentration 10 μM).
The reaction is stopped after 24 hours by the addition of 30 μL 0.1M phosphoric acid containing 2 mM ATP. A multiscreen phosphocellulose filter 96-well plate (Millipore, Cat no. MAPHNOB50) is pretreated with 100 μL 0.2M phosphoric acid prior to the addition of 45 μL of the stopped assay mixture. […]
After removing mean background values for all of the data points, Ki(app) data are calculated from non-linear regression analysis of the initial rate data using the Prism software package (GraphPad Prism version 3.0cx for Macintosh, GraphPad Software, San Diego Calif., USA).

On to `[2H]C([2H])(NC)c1ccc(-c2cc(-c3nc(-c4ccc(S(=O)(=O)C(C)C)cc4)cnc3N)on2)cc1` [II-1, 3-[3-[4-[dideuterio(methylamino)methyl]phenyl]isoxazol-5-yl]-5-(4-isopropylsulfonylphenyl)pyrazin-2-amine], for which the “Cisplatin sensitization” value in assay [1] came to 39 nM. Moreover, the half-inhibitory concentration (IC50) in assay [2] came out at 62 nM.

Turning to “5-(4-(tert-butylsulfonyl)phenyl)-3-(3-(4-((methylamino)methyl)phenyl)isoxazol-5-yl)pyrazin-2-amine [Compound I-2]”, the Ki on full-length ATR was less than 1 nM.

With `[2H]C([2H])([2H])NCc1ccc(-c2cc(-c3nc(-c4ccc(S(=O)(=O)C(C)C)cc4)cnc3N)on2)cc1` [II-3, 5-(4-isopropylsulfonylphenyl)-3-[3-[4-[(trideuteriomethylamino)methyl]phenyl]isoxazol-5-yl]pyrazin-2-amine], the “Cisplatin sensitization” value in assay [1] was 39 nM. In addition, in assay [2], the IC50 was 66 nM.

Turning to `CC(C)(C#N)c1cc(-c2cnc(N)c(-c3cc(-c4ccc(CNC5CCOCC5)cc4)no3)n2)ccn1` [Compound I-1, 2-(4-(5-amino-6-(3-(4-((tetrahydro-2H-pyran-4-ylamino)methyl)phenyl)isoxazol-5-yl)pyrazin-2-yl)pyridin-2-yl)-2-methylpropanenitrile], the Ki at full-length ATR was less than 1 nM.

Consider `[2H]C([2H])([2H])NC([2H])([2H])c1ccc(-c2cc(-c3nc(-c4ccc(S(=O)(=O)C(C)C)cc4)cnc3N)on2)cc1` [II-2, 3-[3-[4-[dideuterio-(trideuteriomethylamino)methyl]phenyl]isoxazol-5-yl]-5-(4-isopropylsulfonylphenyl)pyrazin-2-amine], for which the “Cisplatin sensitization” value in assay [1] was 29 nM. Also, the IC50 in assay [2] stood at 46 nM.
